Experimental findings from article PMC4865820, “Branched Peptide, B2088, Disrupts the Supramolecular Organization of Lipopolysaccharides and Sensitizes the Gram-negative Bacteria” (Scientific Reports, 2016) are described below.

Positions of bridges follow the written chain, without caps; N, C: chain ends. Non-standard residues stand in square brackets, D forms with d. Residues, ends and D or L forms follow the SMILES beside them. Chains are numbered I, II in the order given. Bip = N[C@@H](Cc1ccc(-c2ccccc2)cc1)C(=O)O; Nle = CCCC[C@H](N)C(=O)O; Nva = CCC[C@H](N)C(=O)O

The subject of assay [1] is LPS (E. coli serotype 055:B5). Description: BODIPY TR cadaverine (BC) displacement assay with LPS. Type of assay: binding. The following applies: no unit in table; ED50 values in μM; 5 mM HEPES pH 7.4; duplicates; read-out: BC50 (LPS binding). The procedure, abridged: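 Peptides (0.02–25.6 μM, two-fold dilutions) mixed 1:1 with BODIPY TR cadaverine:LPS (E. coli 055:B5) mixture in 5 mM HEPES pH 7.4; fluorescence at 580/620 nm. Displacement normalized to polymyxin B (Fmax) and probe:LPS alone (F0); ED50 from curve fit, duplicates.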

Assay [2] deals with P. aeruginosa ATCC 27853. Kind of assay: microbe, parasite or virus in culture. It is filed as cell-based. The following applies: ATCC 27853, 24 h. An outline of the steps:
(§1)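 Peptides two-fold diluted in Mueller-Hinton Broth (0.0976–50 μg/ml final) against 10^5–10^6 CFU/ml inoculum, 37 °C for 24 h with OD600 monitored every 30 min. MIC = lowest concentration with no visible growth; two independent duplicates.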

The next assay relates to K. pneumoniae ATCC10031. It is filed as cell-based. The following applies: ATCC10031, 24 h. The procedure, abridged: as §1
For the next assay, the system named is P. aeruginosa 23155. Type of assay: cell-based. The following applies: 23155, 24 h. The procedure, abridged: as §1
The test system of the next assay is K. pneumonia 4299. Description: microbe, parasite or virus in culture. Type of assay: cell-based, K. pneumoniae. The following applies: 24 h. The procedure, abridged:
as §1

In assay [3] the test system is P. aeruginosa ATCC 27853. Type of assay: cell-based. The following applies: ATCC 27853; for Fractional inhibitory concentration of peptide/PMB, combination with Genta: first number in parenthesis; for Fractional inhibitory concentration of antibiotic, Genta combination: second number in parenthesis. An outline of the steps:
(§2)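 Checkerboard combinations of peptide and antibiotic, each 2-fold diluted up to 1× MIC in MHB, were tested against ~10^6 CFU/ml final inoculum. Plates were incubated 24 h at 37 °C, with growth read at OD600. FICI was the sum of the combination-to-alone MIC ratios for each agent, and the lowest FICI from duplicate experiments was reported.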

The next assay has as its system P. aeruginosa DR4877/07. Type of assay: cell-based. Conditions: for Fractional inhibitory concentration of peptide/PMB, combination with Chloarm / Fractional inhibitory concentration of peptide/PMB, combination with Erythro / Fractional inhibitory concentration of peptide/PMB, combination with Levo / Fractional inhibitory concentration of peptide/PMB, combination with Tobra: first number in parenthesis; for Fractional inhibitory concentration of antibiotic, Chloarm combination / Fractional inhibitory concentration of antibiotic, Erythro combination / Fractional inhibitory concentration of antibiotic, Levo combination / Fractional inhibitory concentration of antibiotic, Tobra combination: second number in parenthesis. An outline of the steps:
as §2

The next assay has as its system P. aeruginosa ATCC 9027. Kind of assay: Outer membrane permeability assay (NPN). It is filed as cell-based. Conditions: no unit in table; Fig. S5 axis [Peptide], μM; 10 μM NPN, 5 mM HEPES pH 7.4, ex 355/em 405 nm; average of two titrations; read-out: PC50 (peptide concentration for half-maximal NPN intensity, OM permeability). The procedure, abridged: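 Overnight MHB-grown cells were washed and resuspended in 5 mM HEPES pH 7.4 to OD600 0.200, then loaded with 10 μM NPN (final), with peptide titrated in after dye stabilization. Fluorescence ex 355/em 405 nm; PC50 is the peptide concentration giving half-maximal intensity, from a sigmoidal fit averaged over two titrations.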

Regarding `N=C(N)NCCC[C@H](NC(=O)CNC(=O)[C@@H](N)CCCNC(=N)N)C(=O)N[C@@H](CCCCN)C(=O)N[C@@H](Cc1ccc(-c2ccccc2)cc1)C(=O)N[C@@H](Cc1ccc(-c2ccccc2)cc1)C(=O)N[C@@H](CCCNC(=N)N)C(=O)N[C@@H](CCCNC(=N)N)C(=O)NCCCC[C@H](NC(=O)[C@H](CCCNC(=N)N)NC(=O)[C@H](CCCNC(=N)N)NC(=O)[C@H](Cc1ccc(-c2ccccc2)cc1)NC(=O)[C@H](Cc1ccc(-c2ccccc2)cc1)NC(=O)[C@H](CCCCN)NC(=O)[C@H](CCCNC(=N)N)NC(=O)CNC(=O)[C@@H](N)CCCNC(=N)N)C(=O)N[C@@H](CCCCN)C(=O)O` [(RGRKFbiFbiRR)2KK] (I: H-RGRK[Bip][Bip]RRKK-OH / II: H-RGRK[Bip][Bip]RR; amide I:9-II:C; N-terminus and C-terminus assumed), in assay [1], the EC50 stood at 2.33 ± 0.06 µM. For the same compound, the “Minimum Inhibitory Concentration against P. aeruginosa ATCC 27853” value in the assay on P. aeruginosa ATCC 27853 [2] was 9.8 µM. In the assay on K. pneumoniae ATCC10031, the “Minimum Inhibitory Concentration against K. pneumoniae ATCC10031” value is 9.8 µM. Moreover, the “Minimum Inhibitory Concentration against P. aeruginosa 23155” value in the assay on P. aeruginosa 23155 worked out at 4.9 µM. The “Minimum Inhibitory Concentration against K. pneumonia 4299” value in the assay on K. pneumonia 4299 was determined as 19.6 µM. Besides, in the assay with P. aeruginosa ATCC 27853 [3], the “Fractional inhibitory concentration of peptide/PMB, combination with Genta” value was determined as 0.5 and the “Fractional inhibitory concentration of antibiotic, Genta combination” value is recorded as 0.06. Moreover, in the assay on P. aeruginosa DR4877/07, the “Fractional inhibitory concentration of peptide/PMB, combination with Chloarm” value is on record as 0.5; the “Fractional inhibitory concentration of peptide/PMB, combination with Erythro” value is “(0.5,0.5)”; the “Fractional inhibitory concentration of peptide/PMB, combination with Levo” value is “(0.5,0.5)”; the “Fractional inhibitory concentration of peptide/PMB, combination with Tobra” value is on record as “(0.25,0.25)”. For the same compound, in the assay on P. aeruginosa DR4877/07, the “Fractional inhibitory concentration of antibiotic, Chloarm combination” value came out at 0.06; the “Fractional inhibitory concentration of antibiotic, Erythro combination” value was “(0.5,0.5)”; the “Fractional inhibitory concentration of antibiotic, Levo combination” value was “(0.5,0.5)”; the “Fractional inhibitory concentration of antibiotic, Tobra combination” value is “(0.25,0.25)”. For the same compound, the EC50 with P. aeruginosa ATCC 9027 turned out to be 22.2 ± 1.6 µM.
On to `CCCC[C@H](NC(=O)[C@H](CCCCN)NC(=O)[C@H](CCCNC(=N)N)NC(=O)CNC(=O)[C@@H](N)CCCNC(=N)N)C(=O)N[C@@H](CCCC)C(=O)N[C@@H](CCCNC(=N)N)C(=O)N[C@@H](CCCNC(=N)N)C(=O)NCCCC[C@H](NC(=O)[C@H](CCCNC(=N)N)NC(=O)[C@H](CCCNC(=N)N)NC(=O)[C@H](CCCC)NC(=O)[C@H](CCCC)NC(=O)[C@H](CCCCN)NC(=O)[C@H](CCCNC(=N)N)NC(=O)CNC(=O)[C@@H](N)CCCNC(=N)N)C(=O)N[C@@H](CCCCN)C(=O)O` [(RGRKNleuNleuRR)2KK] (I: H-RGRK[Nle][Nle]RRKK-OH / II: H-RGRK[Nle][Nle]RR; amide I:9-II:C; N-terminus and C-terminus assumed), for which the EC50 in assay [1] was 1.62 ± 0.02 µM. In the assay with P. aeruginosa ATCC 27853 [2], the “Minimum Inhibitory Concentration against P. aeruginosa ATCC 27853” value worked out at 2.7 µM. The “Minimum Inhibitory Concentration against K. pneumoniae ATCC10031” value in the assay on K. pneumoniae ATCC10031 is 2.7 µM. Moreover, in the assay on P. aeruginosa 23155, the “Minimum Inhibitory Concentration against P. aeruginosa 23155” value was determined as 2.7 µM. In addition, the “Minimum Inhibitory Concentration against K. pneumonia 4299” value with K. pneumonia 4299 came out at 5.3 µM. Further, in the assay with P. aeruginosa ATCC 27853 [3], the “Fractional inhibitory concentration of peptide/PMB, combination with Genta” value turned out to be 0.5 and the “Fractional inhibitory concentration of antibiotic, Genta combination” value came out at 0.01. For the same compound, in the assay with P. aeruginosa DR4877/07, the “Fractional inhibitory concentration of peptide/PMB, combination with Chloarm” value stood at 0.5; the “Fractional inhibitory concentration of peptide/PMB, combination with Erythro” value stood at 0.5; the “Fractional inhibitory concentration of peptide/PMB, combination with Levo” value came out at 0.5; the “Fractional inhibitory concentration of peptide/PMB, combination with Tobra” value worked out at 0.06. Besides, in the assay on P. aeruginosa DR4877/07, the “Fractional inhibitory concentration of antibiotic, Chloarm combination” value was determined as 0.06; the “Fractional inhibitory concentration of antibiotic, Erythro combination” value is listed as 0.03; the “Fractional inhibitory concentration of antibiotic, Levo combination” value was 0.25; the “Fractional inhibitory concentration of antibiotic, Tobra combination” value is on record as 0.5. In addition, the EC50 with P. aeruginosa ATCC 9027 stood at 16.4 ± 0.1 µM.
For the compound `CCC[C@H](NC(=O)[C@H](CCCCN)NC(=O)[C@H](CCCNC(=N)N)NC(=O)CNC(=O)[C@@H](N)CCCNC(=N)N)C(=O)N[C@@H](CCC)C(=O)N[C@@H](CCCNC(=N)N)C(=O)N[C@@H](CCCNC(=N)N)C(=O)NCCCC[C@H](NC(=O)[C@H](CCCNC(=N)N)NC(=O)[C@H](CCCNC(=N)N)NC(=O)[C@H](CCC)NC(=O)[C@H](CCC)NC(=O)[C@H](CCCCN)NC(=O)[C@H](CCCNC(=N)N)NC(=O)CNC(=O)[C@@H](N)CCCNC(=N)N)C(=O)N[C@@H](CCCCN)C(=O)O` [(RGRKNvalNvalRR)2KK] (I: H-RGRK[Nva][Nva]RRKK-OH / II: H-RGRK[Nva][Nva]RR; amide I:9-II:C; N-terminus and C-terminus assumed), the EC50 in assay [1] is 1.45 ± 0.01 µM. Also, in the assay with P. aeruginosa ATCC 27853 [2], the “Minimum Inhibitory Concentration against P. aeruginosa ATCC 27853” value was determined as 10.9 µM. Besides, in the assay with K. pneumoniae ATCC10031, the “Minimum Inhibitory Concentration against K. pneumoniae ATCC10031” value was 10.9 µM. Further, in the assay on P. aeruginosa 23155, the “Minimum Inhibitory Concentration against P. aeruginosa 23155” value was 5.5 µM. Further, in the assay on K. pneumonia 4299, the “Minimum Inhibitory Concentration against K. pneumonia 4299” value turned out to be 21.8 µM. Further, in the assay on P. aeruginosa ATCC 27853 [3], the “Fractional inhibitory concentration of antibiotic, Genta combination” value worked out at 0.13. In addition, in the assay on P. aeruginosa DR4877/07, the “Fractional inhibitory concentration of peptide/PMB, combination with Chloarm” value was “(0.25,0.25)”; the “Fractional inhibitory concentration of peptide/PMB, combination with Erythro” value is recorded as “(0.5,0.5)”; the “Fractional inhibitory concentration of peptide/PMB, combination with Levo” value is reported as 0.5; the “Fractional inhibitory concentration of peptide/PMB, combination with Tobra” value came to 0.25. Also, in the assay with P. aeruginosa DR4877/07, the “Fractional inhibitory concentration of antibiotic, Chloarm combination” value is on record as “(0.25,0.25)”; the “Fractional inhibitory concentration of antibiotic, Erythro combination” value is given as “(0.5,0.5)”; the “Fractional inhibitory concentration of antibiotic, Levo combination” value is listed as 0.25; the “Fractional inhibitory concentration of antibiotic, Tobra combination” value came to 0.13. For the same compound, the EC50 with P. aeruginosa ATCC 9027 is 14.9 ± 1.2 µM.
